Laboratory results from patent publication US8541364B2, “Use of a octreotide as a therapeutic agent” (Mondobiotech Laboratories AG, priority 2007, dated 2013).

Assays:
HIV-1IIIB = test: HIV-1 antiviral assay, CPE reduction (MTS); conditions: peptide 10 micrograms per ml; 6 days post-infection
HepG2-2.2.15 cells = test: HBV assay cytotoxicity, dye uptake cell viability; format: cell-based; conditions: peptide 10 micrograms per ml
HCMV strain AD169 = test: HCMV plaque reduction assay; format: cell-based; conditions: HCMV in MRC-5 cells; peptide 10 micrograms per ml; 7-10 days
Excerpt: (§1) Cells were split twic a week 1:2.
Ganciclovir was used as positive control.

MRC-5 cells = test: HCMV assay cytotoxicity testing, CellTiter 96; format: cell-based, human; conditions: 6 days incubation
Method: as §1
For cytotxicity testing, MRC-5 cells were seeded at 2,500 cells/well in 96 well plates using growth medium. […] The following day, peptide was added and tested in duplicates. After a 6 days incubation period, cell viability was measured using CellTiter 96 Solution (Promega). Plates were incubated for additional 4 hours at 37° C.

MRSA = test: Methicillin resistant Staphylococcus aureus (MRSA) assay; format: cell-based; conditions: MRSA growth; peptide 10 micrograms per ml
Method: (§2) The antibacterial assay was conducted using clear, U-bottom 96-well microtiter plates. Cation-adjusted Mueller-Hinton Broth (MHB) was used for testing MRSA. The peptide of the invention (0.1 ml of each—10 micrograms per ml—) was dispensed into wells in duplicate. Then the wells were inoculated with 5×10^5 CFU/mL MRSA in 0.1 ml volume. For control purposes, each plate included 4 wells containing media without bacterial inoculum and 4 wells containing medium with inoculum but without peptide. The plates were incubated for 12 h at 37° C., and read visually 18-24 hours post-incubation. Growth control of MRSA was examined first to determine adequacy of media preparations and growth conditions. Acceptable growth is defined as 2 mm wide button of cells at the bottom of each sample well, or obvious turbidity in the culture supernatant. Test wells were examined and scored as positive/negative for activity. A positive score for activity is based on complete inhibition of macroscopic growth of the test MRSA.

Pseudomonas aeruginosa = Pseudomonas aeruginosa assay; format: cell-based; conditions: Pseudomonas aeruginosa growth; peptide 10 micrograms per ml
Method: as §2, with “testing Pseudomonas aeruginosa.” for “testing MRSA.”, “CFU/mL Pseudomonas aeruginosa” for “CFU/mL MRSA”, “of Pseudomonas aeruginosa” for “of MRSA”, “as ≧2” for “as 2”, “test Pseudomonas aeruginosa.” for “test MRSA.”

Streptococcus pneumoniae = Streptococcus pneumoniae assay; format: cell-based; conditions: Streptococcus pneumoniae growth; peptide 10 micrograms per ml
Method: as §2, with “testing Streptococcus pneumoniae.” for “testing MRSA.”, “CFU/mL Streptococcus pneumoniae” for “CFU/mL MRSA”, “of Streptococcus pneumoniae” for “of MRSA”, “as ≧2” for “as 2”, “test Streptococcus pneumoniae.” for “test MRSA.”

A549 cells [1] = test: Propidium iodide cell cycle assay; format: cell-based, human; conditions: 10 micrograms per ml, 24 hours
Method: Human A549 cells (carcinomic human alveolar basal epithelial cells) were utilized in the experiments employing the Propidium iodide cell cycle assay. The eukaryotic cell cycle is a series of events that take place in a cell leading to its replication.
Propidium iodide is an intercalating agent and a fluorescent molecule that can be used to stain DNA. Cells were incubated for 24 hours with test peptide—10 micrograms per ml—or left untreated. After that cells were trypsinized, suspended in medium+10% FCS, centrifuged (1000 rpm, 5 min), and the cell pellet resuspended in PBS (1 ml). The cells were pipetted into 2.5 ml absolute EtOH (final concentration approx. 70%) and incubated on ice for 15 min. Thereafter, cells were pelleted at 1500 rpm for 5 min and resuspended in Propidium iodide solution in PBS. After incubation for 40 min at 37° C., cells were analyzed in the FACS.

[2] = tested on: PHA-stimulated PBMC (T cell proliferation); test: T cell proliferation assay; format: cell-based, human; conditions: 3H-thymidine incorporation; 10 micrograms per ml
Method: Human Peripheral Blood Mononuclear Cells (PBMC) were obtained from normal human donors. The T cell proliferation was induced by stimulation of the cells with the T cell mitogen phytohemagglutinin (PHA), either in the absence (positive proliferation control), or in the presence of test peptide—10 micrograms per ml—to examine their effects on the T cell proliferating response. 10^5/well PBMC were plated in 96-well microtiter plates and assayed in duplicate with the peptide. Cell cultures were incubated at 37° C. for 3 days in a 5% CO2 incubator and were thereafter pulsed with 1 microCi/well ^3H-thymidine for additional 12 hours of culture. At the end of incubation time, the plates were harvested and the cells counted by liquid scintillation for the incorporation of ^3H-thymidine as a measure of T cell proliferation.

A549 cells [3] = test: Apoptosis induction assay (Annexin-5); format: cell-based, human; conditions: 10 micrograms per ml, 24 hours
Excerpt: Human A549 cells (carcinomic human alveolar basal epithelial cells) were utilized in the experiments employing the Annexin-5 apoptosis assay. Annexin-5 is a member of a highly conserved protein family that binds acidic phospholipids in a calcium-dependent manner. […] Phosphatidylserine is translocated from the inner side of the plasma membrane to the outer layer when cells undergo death by apoptosis or cell necrosis and serves as a signal by which cell destined for death are recognized by phagocytes. Test peptide—10 micrograms per ml—were exposed for 24 hours to the A549 cells before they were analyzed for signs of apoptosis.

A549 cells [4] = test: Apoptosis prevention assay (Annexin-5, C2 ceramide); format: cell-based, human; conditions: A549 cells pretreated 30 min; 10 micrograms per ml
Excerpt: Human A549 cells (carcinomic human alveolar basal epithelial cells) were utilized in the experiments employing the Annexin-5 apoptosis assay. Annexin-5 is a member of a highly conserved protein family that binds acidic phospholipids in a calcium-dependent manner. […] Phosphatidylserine is translocated from the inner side of the plasma membrane to the outer layer when cells undergo death by apoptosis or cell necrosis and serves as a signal by which cell destined for death are recognized by phagocytes. A549 cells were pretreated for 30 min with test peptide—10 micrograms per ml—followed by the exposure to C2 ceramide. Ceramide mediates cell apoptosis through the activation of the mitogen activating protein kinase (MAPK) and the stress activated kinase (JNK/SAPK). C2 ceramide is a synthetic, membrane soluble analog of ceramide.

[5] = tested on: Ovalbumin-restimulated spleen cells; test: Th1/Th2 cytokine profiling assay; format: cell-based, Balb/c mice; conditions: 10 micrograms per ml; 72 hours
Excerpt: The Balb/c mice (originated in 1923, it is a popular strain and is used in many different research disciplines. Also classified as an inbred from the production of 20 or more successive brother-sister matings, the Balb/c mouse is albino and small in size) were immunized on Days 1, 15, and 29 with Ovalbumin (Ovalbumin is the main protein found in egg white, commonly used to stimulate an immunological reaction in test animals) in PBS (5 micrograms/injection). On day 50, spleens of the mice were harvested (3 weeks after last boost with Ovalbumin). Cells were cultured (2×10^5/well in triplicate) and incubated with culture medium or test peptide—10 micrograms per ml—for 30 min. Thereafter, additional Ovalbumin was added to the cells at 10 micrograms/ml for in vitro restimulation of the cells. 72 hours later, cell supernatants were harvested and assayed using the Becton Dickinson Mouse Th1/Th2 Cytokine CBA Kit. This kit can be used to measure Interleukin-2 (IL-2), Interleukin-4 (IL-4), Interleukin-5 (IL-5), Interferon-γ (IFN-γ), and Tumor Necrosis Factor-α (TNF-α) protein levels in a single sample. The kit performance has been optimized for analysis of physiologically relevant concentrations (pg/ml levels) of specific cytokine proteins in tissue culture supernatants and serum samples.

HUVEC [6] = test: Endothelial cell migration assay; format: cell-based, human; conditions: 10 micrograms per ml, 22 hours
Method: Endothelial cell migration is a prerequisite for the process of neo-vascularization or angiogenesis which is crucial for on-site recruitment of blood vessel formation. Primary Human endothelial cells (HUVEC) were seeded in insert chambers with 3 micrometer pore size of multi-transwell plate for 6 hours at 37° C. in Endothelial Cell Basal Medium (EBM) supplemented with 0.1% bovine serum albumin. Thereafter, designated concentration of test peptide—10 micrograms per ml—was added in duplicate wells. The endothelia were allowed to migrate for 22 hours at 37° C., then, migrated cells were fixed and stained with Hoechst 33342 dye. Images of 3 fields per insert were taken and the number of migrated cells per field were quantified using the ImageProPlus software. Data were analyzed for the average number of the migrated cells and standard deviation of six data points for each treatment condition. Active test peptide against HUVEC migration was determined based on 50% inhibition of migrated cells as compared with the control. Statistic p values were computed using the Student's t-test.

HUVEC [7] = test: Endothelial tube formation assay; format: cell-based, human; conditions: 10 micrograms per ml, 20 hours
Method: The endothelial tube formation assay is based on the ability of endothelial cells to form three-dimensional capillary-like tubular structures when cultured on a gel of basement membrane extract. The endothelial tube formation assay represents a powerful model for studying inhibition and induction of angiogenesis. Pre-labeled HUVEC with Calcein AM were seeded in a 96-well culture plate coated with extracellular metrix (Chemicon international Cat. ECM625) and treated with test peptide—10 micrograms per ml—in full growth medium. Positive control was vehicle only. The endothelial cells were allowed to form tubes foe 20 hours and were then examined under an inverted fluorescent microscope. Duplicate wells for each treatment were photographed and quantitatevily analyzed for an average tubule length using image analysis software ImageProPlus. Raw data were expressed as average tubule lenghs in pixels±standard deviation. Statistic p values were computed using the Student's t-test.

CEM-SS cells = test: HIV-1 assay cytotoxicity, MTS cell viability; conditions: peptide 10 micrograms per ml

| Structure (SMILES) | % CPE reduction in HIV-1 infected CEM-SS cells (HIV-1IIIB) [%] | % Cell viability (HepG2-2.2.15 cells) [%] | % plaque reduction (HCMV strain AD169) [%] | % Cell viability (MRC-5 cells) [%] | % inhibition (MRSA) [%] | % inhibition (Pseudomonas aeruginosa) [%] | % inhibition (Streptococcus pneumoniae) [%] | Cell cycle analysis G2/M (A549 cells [1]) | % of PHA induced control [2] [%] | % of induction (A549 cells [3]) [%] | % prevention of ceramide induced apoptosis (A549 cells [4]) [%] | IFNγ spleen cells; TH1 response (% of control) [5] | % inhibition of migration (HUVEC [6]) [%] | % inhibition of tube formation (HUVEC [7]) [%] | % Cell viability (CEM-SS cells) [%] |
| --- | --- | --- | --- | --- | --- | --- | --- | --- | --- | --- | --- | --- | --- | --- | --- |
| CC(C)(C)NC(=O)[C@@H]1CN(Cc2cccnc2)CCN1C[C@@H](O)C[C@@H](Cc1ccccc1)C(=O)N[C@H]1c2ccccc2C[C@H]1O [Indinavir] | 100 | – | – | – | – | – | – | – | – | – | – | – | – | – | – |
| C[C@@H](O)[C@@H]1NC(=O)[C@H](CCCCN)NC(=O)[C@@H](Cc2c[nH]c3ccccc23)NC(=O)[C@H](Cc2ccccc2)NC(=O)[C@@H](NC(=O)[C@H](N)Cc2ccccc2)CSSC[C@@H](C(=O)N[C@H](CO)[C@@H](C)O)NC1=O [Octreotide, D-Phe-Cys-Phe-D-Trp-Lys-Thr-Cys-L-threoninol] | 0.0 | 97.8 | 0.0 | 100 | 0.0 | 0.0 | 100.0 | 9.2 | 100.0 | 2.6 | 0.0 | 56.0 % of control | −24 | 8 | 100 |
| Cc1cn([C@H]2C[C@H](N=[N+]=[N-])[C@@H](CO)O2)c(=O)[nH]c1=O [AZT, reference compound] | 99 | – | – | – | – | – | – | – | – | – | – | – | – | – | 97 |
